This is an account of results in patent US6858647B2, “Retinoid compounds suited for antibacterial applications” (Galderma Research & Development S.N.C., priority 2000, dated 2005).

Experiment [1] concerns Staphylococcus aureus CIP52.1. The experiment in a line: Minimum inhibitory concentration (MIC), NCCLS dilution antimicrobial susceptibility test. Type of experiment: cell-based. To be noted: mean of at least three tests, read-out: MIC RESULTS MEAN. From the text: The bacterium Staphylococcus aureus CIP52.1 may be used in order to determine for each test compound the minimum inhibitory concentration for the bacterium, or MIC, expressed in μM.
The technique employed to determine the minimum inhibitory concentration or MIC was that described in the publication entitled “National committee for clinical laboratory standards” Vol. 13, No. 25, December 1993; Methods for dilution antimicrobial susceptibility tests for bacteria that grow aerobically-third edition, approved standard”. This minimum inhibitory concentration gives an indication as to the bacteriostatic effect of the test compounds, i.e., the capacity of these compounds to stop the proliferation of the bacterium.
Each compound of the invention was tested at least three times. The average of the test results was calculated, along with the standard deviation. The reference compound used was gentamycin.
The technique employed to determine the MIC values was the same as that described in Example 1.
(§1) Each compound of the invention and each comparative example taken from the Pierre Fabre patent application No. FR-2,736,548 was tested at least three times. The mean of the test results was calculated, along with the standard deviation. The reference compound used was gentamycin.

Experiment [2] relates to bacterium Staphylococcus aureus. Put plainly: Minimum bactericidal concentration (MBC). The experiment is classed as cell-based. To be noted: Table IV, Example 2, mean of at least three tests, bactericidal activity (MBC). The protocol:
The technique employed to determine the minimum bactericidal concentration, or MBC, was that described in Bactéricidie, P. Courvalin et al., Editions Maloine, 1990, chapter 7, page 335.
This minimum bactericidal concentration provides an indication as to the bactericidal effect of the test compounds, i.e., the capacity of these compounds to kill the bacterium.
as §1

Another experiment relates to RAR receptor. The experiment in a line: Biological activity of RAR receptor antagonist / agonist type. To be noted: stated in words, no test described.
Where [3] appears, read: Table III, Example 2, comparison with retinaldehydes.
The mark [4] stands for this setting: Staphylococcus aureus, CIP52, Table II, Example 1, bacteriostatic effect.
Where [5] appears, read: Staphylococcus aureus, CIP52, Table III, Example 2, comparison with retinaldehydes.
The mark [6] stands for this setting: Table II, Example 1, bacteriostatic effect.

Values after ≈ are worked out from the molar mass of the structure shown. Like-named read-outs stand apart in the source and are kept apart here.

Take `CC1=C(/C=C/C(C)=C/C=C/C(C)=C/C=O)C(C)(C)CCC1` [Comparative Example 1, all-trans-retinaldehyde, reference compound]: the minimum inhibitory concentration (MIC) is listed as 11.64 µM (≈ 3.31 µg/mL) in experiment [1] (setting [3]) and 26.33 µM (≈ 7.49 µg/mL) in experiment [2].
The corresponding values for `CC1=C(/C=C/C(C)=C\C=C\C(C)=C\C=O)C(C)(C)CCC1` [Comparative Example 2, 9-cis-retinaldehyde, reference compound] are 11.52 µM (≈ 3.28 µg/mL) and 16.63 µM (≈ 4.73 µg/mL).
For `CC1=C(/C=C/C(C)=C/C=C/C(C)=C\C=O)C(C)(C)CCC1` [Comparative Example 3, 13-cis-retinaldehyde, reference compound], in that order: 7.64 µM (≈ 2.17 µg/mL) and 15.97 µM (≈ 4.54 µg/mL).
On to `COc1c(O)cc(-c2ccc3cc(C(=O)O)ccc3c2)cc1C12CC3CC(CC(C3)C1)C2` [Compound 1, 6-[3-(1-Adamantyl)-4-methoxy-5-hydroxyphenyl]-2-naphthoic acid], for which the MIC in experiment [1] (setting [4]) worked out at 1.04 µM (≈ 0.446 µg/mL); in experiment [1] (setting [5]), 1.3 µM (≈ 0.557 µg/mL); in experiment [2] (Staphylococcus aureus) it was 12.5 µM (≈ 5.36 µg/mL). In addition, the “biological activity at RAR receptor (antagonist or agonist type)” value (shortened to “biological activity at RAR receptor”) in the experiment on RAR receptor is “RAR receptor agonist type”.
The corresponding values for `COCOc1cccc(C=CC#Cc2ccc(C(=O)O)cc2)c1-c1ccc(C)cc1` [Compound 2, 4-[4-(6-Methoxymethoxy-4′-methylbiphenyl-2-yl)but-3-en-1-ynyl]benzoic acid] are 1.04 µM (≈ 0.414 µg/mL), 2.45 µM (≈ 0.976 µg/mL), 16.6 µM (≈ 6.63 µg/mL) and “RAR receptor antagonist type”.
The corresponding values for `CC(C)(C)C1=CC(=CC#Cc2ccc(C(=O)O)cc2)C=C(C(C)(C)C)C1=O` [Compound 5, 4-[3-(3,5-Di-tert-butyl-4-oxocyclohexa-2,5-dienylidene)prop-1-ynyl]benzoic acid] are 1.25 µM (≈ 0.453 µg/mL), 3.3 µM (≈ 1.2 µg/mL), 13.2 µM (≈ 4.78 µg/mL) and “RAR receptor agonist type”.
In the case of `COCOc1ccccc1-c1ccc(-c2ccc(C(=O)O)cc2)cc1-c1ccc2c(c1)C(C)(C)CCC2(C)C` [Compound 34, 2-Methoxymethoxy-2′-(5,5,8,8-tetramethyl-5,6,7,8-tetrahydronaphthalen-2-yl) [1,1′,4′1″]terphenyl-4″carboxylic acid], in experiment [1] (setting [6]), the MIC was 3.33 µM (≈ 1.73 µg/mL). In addition, the “biological activity at RAR receptor” value with RAR receptor is given as “RAR receptor antagonist type”.
Regarding `Cc1ccc(-c2ccccc2C=CC#Cc2ccc(C(=O)O)cc2)cc1` [Compound 37, 4-[4-(4′-Methylbiphenyl-2-yl)but-3-en-1-ynyl]benzoic acid], the MIC in experiment [1] (setting [4]) is 4.16 µM (≈ 1.41 µg/mL). Further, the “biological activity at RAR receptor” value with RAR receptor was “RAR receptor antagonist type”.
gentamycin [reference compound]: the MIC in experiment [1] (setting [6]) is on record as 0.11 µM; in experiment [1] (setting [3]), 0.14 µM; in experiment [2], 0.26 µM.
